# Data published in patent publication US9522886B2, “Pyridine derivatives” (Hoffmann-La Roche Inc., priority 2012, dated 2016).
# Read-outs that look alike come from different tables or passages of the source.
# What was measured:
# human CB2 receptors = human CB2 receptors (Homo sapiens (Human), UniProt P34972); assay: cAMP assay, CHO cells expressing human CB2 receptors; type: cell-based
# Method: (§1) CHO cells expressing human CB1 or CB2 receptors are seeded 17-24 hours prior to the experiment 50.000 cells per well in a black 96 well plate with flat clear bottom (Corning Costar #3904) in DMEM (Invitrogen No. 31331), 1×HT supplement, with 10% fetal calf serum and incubated at 5% CO2 and 37° C. in a humidified incubator. The growth medium was exchanged with Krebs Ringer Bicarbonate buffer with 1 mM IBMX and incubated at 30° C. for 30 min. Compounds were added to a final assay volume of 100 μl and incubated for 30 min at 30° C. Using the cAMP-Nano-TRF detection kit the assay (Roche Diagnostics) was stopped by the addition of 50 μl lysis reagent (Tris, NaCl, 1.5% Triton X100, 2.5% NP40, 10% NaN3) and 50 μl detection solutions (20 μM mAb Alexa700-cAMP 1:1, and 48 μM Ruthenium-2-AHA-cAMP) and shaken for 2 h at room temperature. The time-resolved energy transfer is measured by a TRF reader (Evotec Technologies GmbH), equipped with a ND:YAG laser as excitation source. The plate is measured twice with the excitation at 355 nm and at the emission with a delay of 100 ns and a gate of 100 ns, total exposure time 10 s at 730 (bandwidth 30 nm) or 645 nm (bandwidth 75 nm), respectively.
# (§2) EC50 values were determined using Activity Base analysis (ID Business Solution, Limited).
# human CB1 receptors = human CB1 receptors (Homo sapiens (Human), UniProt P21554); assay: cAMP assay, CHO cells expressing human CB1 receptors; type: cell-based
# human CB1 receptors, sequence (P21554 whole entry): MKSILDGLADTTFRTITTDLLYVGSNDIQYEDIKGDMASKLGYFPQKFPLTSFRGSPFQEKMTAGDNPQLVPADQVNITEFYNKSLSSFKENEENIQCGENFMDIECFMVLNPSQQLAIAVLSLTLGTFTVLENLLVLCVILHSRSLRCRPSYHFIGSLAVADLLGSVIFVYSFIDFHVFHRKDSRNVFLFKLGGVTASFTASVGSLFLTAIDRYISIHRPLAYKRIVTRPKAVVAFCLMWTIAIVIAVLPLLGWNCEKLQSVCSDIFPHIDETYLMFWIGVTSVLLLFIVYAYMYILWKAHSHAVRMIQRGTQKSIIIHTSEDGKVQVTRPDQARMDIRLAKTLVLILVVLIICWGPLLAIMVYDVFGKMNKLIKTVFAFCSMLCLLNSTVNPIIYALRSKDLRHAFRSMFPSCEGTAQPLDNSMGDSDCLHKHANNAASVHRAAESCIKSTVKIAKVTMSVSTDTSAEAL
# Method: as §1, §2
# [1] = functional cAMP assay, CHO cells expressing human CB2, read-out: human CB2 EC50
# [2] = functional cAMP assay, CHO cells expressing human CB1, read-out: human CB1 EC50
# human CB2 receptors, sequence (P34972 whole entry): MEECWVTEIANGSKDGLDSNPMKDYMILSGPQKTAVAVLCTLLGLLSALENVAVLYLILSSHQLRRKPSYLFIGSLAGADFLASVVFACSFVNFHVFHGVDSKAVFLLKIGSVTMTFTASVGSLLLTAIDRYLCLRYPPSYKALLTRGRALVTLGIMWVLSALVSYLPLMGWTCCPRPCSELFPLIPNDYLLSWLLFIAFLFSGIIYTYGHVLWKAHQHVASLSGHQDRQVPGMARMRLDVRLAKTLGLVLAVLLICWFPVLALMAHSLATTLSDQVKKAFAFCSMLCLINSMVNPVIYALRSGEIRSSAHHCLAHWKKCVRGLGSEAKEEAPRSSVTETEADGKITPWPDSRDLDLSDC
Compound,EC50 (human CB2 receptors; [1]) [nM],EC50 (human CB1 receptors; [2]) [µM],EC50 (human CB2 receptors) [nM],EC50 (human CB1 receptors) [µM]
"NC(=O)CC1(NC(=O)c2ccc(N3CC(F)(F)C3)c(OCC3CC3)n2)CNC(=O)C1 (stereo not drawn) [Example 54, 6-Cyclopropylmethoxy-5-(3,3-difluoro-azetidin-1-yl)-pyridine-2-carboxylic acid (3-carbamoylmethyl-5-oxo-pyrrolidin-3-yl)-amide]",55,> 10,–,–
"CNC(=O)CC1(NC(=O)c2ccc(C(F)(F)F)c(OCC3CC3)n2)COC1 [Example 39, 6-Cyclopropylmethoxy-5-trifluoromethyl-pyridine-2-carboxylic acid (3-methylcarbamoylmethyl-oxetan-3-yl)-amide]",599,> 10,–,–
"NC(=O)CC1(NC(=O)c2ccc(C(F)(F)F)c(OCC3CCOCC3)n2)CS(=O)(=O)C1 [Example 78, N-[3-(2-Amino-2-oxoethyl)-1,1-dioxothietan-3-yl]-6-(oxan-4-ylmethoxy)-5-(trifluoromethyl)pyridine-2-carboxamide]",41,> 10,–,–
"CCOC(=O)CC(C)(C)NC(=O)c1ccc(N2CC(F)(F)C2)c(OCC2CC2)n1 [Example 5, 3-{[6-Cyclopropylmethoxy-5-(3,3-difluoro-azetidin-1-yl)-pyridine-2-carbonyl]-amino}-3-methyl-butyric acid ethyl ester]",518,> 10,–,–
"CNC(=O)CC(C)(C)NC(=O)c1ccc(N2CC(F)(F)C2)c(OCC2CC2)n1 [Example 6, 6-Cyclopropylmethoxy-5-(3,3-difluoro-azetidin-1-yl)-pyridine-2-carboxylic acid (1,1-dimethyl-2-methylcarbamoyl-ethyl)-amide]",172,> 10,–,–
"CNC(=O)CC1(NC(=O)c2ccc(N3CC(F)(F)C3)c(OCC3CC3)n2)COC1 [Example 37, 6-Cyclopropylmethoxy-5-(3,3-difluoro-azetidin-1-yl)-pyridine-2-carboxylic acid (3-methylcarbamoylmethyl-oxetan-3-yl)-amide]",363,> 10,–,–
"O=C(O)CC1(NC(=O)c2ccc(N3CC(F)(F)C3)c(OCC3CC3)n2)CCC1 [Example 69, 2-[1-[[6-(Cyclopropylmethoxy)-5-(3,3-difluoroazetidin-1-yl)pyridine-2-carbonyl]amino]cyclobutyl]acetic acid]",302,> 10,–,–
"CC(C)C[C@H](CC(N)=O)NC(=O)c1ccc(C2CC2)c(OCC2CC2)n1 [Example 25, (+)-5-Cyclopropyl-6-cyclopropylmethoxy-pyridine-2-carboxylic acid (1-carbamoylmethyl-3-methyl-butyl)-amide]",4.3,> 10,–,–
"NC(=O)CC1(NC(=O)c2ccc(C3CC3)c(Cc3ccc(F)cc3)n2)CCOC1 (stereo not drawn) [Example 87, N-[3-(2-Amino-2-oxoethyl)oxolan-3-yl]-5-cyclopropyl-6-[(4-fluorophenyl)methyl]pyridine-2-carboxamide]",–,–,0.3,0.0348
"NC(=O)[C@@H]1CCCC[C@@H]1NC(=O)c1ccc(N2CC(F)(F)C2)c(OCC2CC2)n1 (stereo in doubt) [Example 20, (+)-cis-6-Cyclopropylmethoxy-5-(3,3-difluoro-azetidin-1-yl)-pyridine-2-carboxylic acid (2-carbamoyl-cyclohexyl)-amide]",15.8,> 10,–,–
"CN(C)C(=O)CC1(NC(=O)c2ccc(N3CC(F)(F)C3)c(OCC3CC3)n2)COC1 [Example 41, 6-Cyclopropylmethoxy-5-(3,3-difluoro-azetidin-1-yl)-pyridine-2-carboxylic acid (3-dimethylcarbamoylmethyl-oxetan-3-yl)-amide]",298,> 10,–,–
"NC(=O)CC1(NC(=O)c2ccc(C(F)(F)F)c(OCC3CC3)n2)CSC1 [Example 97, N-[3-(2-Amino-2-oxoethyl)thietan-3-yl]-6-(cyclopropylmethoxy)-5-(trifluoromethyl)pyridine-2-carboxamide]",11.5,> 10,–,–
"NC(=O)CC1(NC(=O)c2ccc(N3CC(F)(F)C3)c(OCC3CC3)n2)CCOCC1 [Example 60, 6-Cyclopropylmethoxy-5-(3,3-difluoro-azetidin-1-yl)-pyridine-2-carboxylic acid (4-carbamoylmethyl-tetrahydro-pyran-4-yl)-amide]",2.6,> 10,–,–
"CCOC(=O)CC(CC(C)C)NC(=O)c1ccc(C2CC2)c(OCC2CC2)n1 (stereo not drawn) [Example 22, 3-[(5-Cyclopropyl-6-cyclopropylmethoxy-pyridine-2-carbonyl)-amino]-5-methyl-hexanoic acid ethyl ester]",11.9,> 10,–,–
"NC(=O)CC(NC(=O)c1ccc(C2CC2)c(OCC2CC2)n1)C1CCOC1 (stereo not drawn) [Example 64, N-[3-Amino-3-oxo-1-(oxolan-3-yl)propyl]-5-cyclopropyl-6-(cyclopropylmethoxy)pyridine-2-carboxamide]",5.2,> 10,–,–
"NC(=O)CC1(NC(=O)c2ccc(N3CC(F)(F)C3)c(OCC3CC3)n2)CCN(C(=O)OCc2ccccc2)C1 (stereo not drawn) [Example 83, Benzyl 3-(2-amino-2-oxoethyl)-3-[[6-(cyclopropylmethoxy)-5-(3,3-difluoroazetidin-1-yl)pyridine-2-carbonyl]amino]pyrrolidine-1-carboxylate]",1330,> 10,–,–
"CC(C)(C)[C@@H](CC(N)=O)NC(=O)c1ccc(C2CC2)c(OCC2CC2)n1 [Example 29, 5-Cyclopropyl-6-cyclopropylmethoxy-pyridine-2-carboxylic acid ((R)-1-carbamoylmethyl-2,2-dimethyl-propyl)-amide]",23.2,> 10,–,–
"NC(=O)CC1(NC(=O)c2ccc(C3(O)CCC3)c(OCC3CC3)n2)CS(=O)(=O)C1 [Example 92, N-[3-(2-Amino-2-oxoethyl)-1,1-dioxothietan-3-yl]-6-(cyclopropylmethoxy)-5-(1-hydroxycyclobutyl)pyridine-2-carboxamide]",2.2,> 10,–,–
"NC(=O)CC1(NC(=O)c2ccc(N3CC(F)(F)C3)c(OCC3CC3)n2)CCNCC1 [Example 85, N-[4-(2-Amino-2-oxoethyl)piperidin-4-yl]-6-(cyclopropylmethoxy)-5-(3,3-difluoroazetidin-1-yl)pyridine-2-carboxamide]",270,> 10,–,–
"CN(C)C(=O)CC1(NC(=O)c2ccc(C3CC3)c(OCC3CC3)n2)COC1 [Example 40, 5-Cyclopropyl-6-cyclopropylmethoxy-pyridine-2-carboxylic acid (3-dimethylcarbamoylmethyl-oxetan-3-yl)-amide]",345,> 10,–,–
"NC(=O)CC(NC(=O)c1ccc(N2CC(F)(F)C2)c(OCC2CC2)n1)C(F)(F)F (stereo not drawn) [Example 55, 6-Cyclopropylmethoxy-5-(3,3-difluoro-azetidin-1-yl)-pyridine-2-carboxylic acid (1-carbamoylmethyl-2,2,2-trifluoro-ethyl)-amide]",3,> 10,–,–
"NC(=O)CC(NC(=O)c1ccc(C2CC2)c(OCC2CC2)n1)C(F)(F)F (single isomer, unassigned; (-)) [Example 31, (−)-5-Cyclopropyl-6-cyclopropylmethoxy-pyridine-2-carboxylic acid (1-carbamoylmethyl-2,2,2-trifluoro-ethyl)-amide]",8.8,> 10,–,–
"CC(C)CC(CNC(=O)c1ccc(N2CC(F)(F)C2)c(OCC2CC2)n1)C(=O)O (stereo not drawn) [Example 11, 2-[({[6-(Cyclopropylmethoxy)-5-(3,3-difluoroazetidin-1-yl)pyridin-2-yl]carbonyl}amino)methyl]-4-methylpentanoic acid]",967,> 10,–,–
"CC(C)CS(=O)(=O)c1nc(C(=O)NC2(CC(N)=O)COC2)ccc1C1CC1 [Example 36, 5-Cyclopropyl-6-(2-methyl-propane-1-sulfonyl)-pyridine-2-carboxylic acid (3-carbamoylmethyl-oxetan-3-yl)-amide]",255,> 10,–,–
"CC(C)[C@H](CC(N)=O)NC(=O)c1ccc(N2CC(F)(F)C2)c(OCC2CC2)n1 [Example 19, 6-Cyclopropylmethoxy-5-(3,3-difluoro-azetidin-1-yl)-pyridine-2-carboxylic acid ((S)-1-carbamoylmethyl-2-methyl-propyl)-amide]",3.2,> 10,–,–
"NC(=O)CC1(NC(=O)c2ccc(N3CC(F)(F)C3)c(OCC3CC3)n2)CS(=O)(=O)C1 [Example 61, 6-Cyclopropylmethoxy-5-(3,3-difluoro-azetidin-1-yl)-pyridine-2-carboxylic acid (3-carbamoylmethyl-1,1-dioxo-1λ6-thietan-3-yl)-amide]",1,7.75,–,–
"COC(=O)CC1(NC(=O)c2ccc(N3CC(F)(F)C3)c(OCC3CC3)n2)CCOCC1 [Example 52, (4-{[6-Cyclopropylmethoxy-5-(3,3-difluoro-azetidin-1-yl)-pyridine-2-carbonyl]-amino}-tetrahydro-pyran-4-yl)-acetic acid methyl ester]",74.9,> 10,–,–
